Measurements: patent US8987522B2, “Differentiation inducer to brown-like adipocyte of white adipocyte” (Uha Mikakuto Co., Ltd., priority 2012, dated 2015)

Key:
[1] = test system: human vascular endothelial cells; conditions: Japanese Patent Application No. 2011-118367; cited from earlier work
mature adipocytes [2] = conditions: Japanese Patent Application No. 2011-186054; cited from earlier work
preadipocytes = conditions: Japanese Patent Application No. 2012-240364; cited from earlier work
[3] = test system: 3T3-L1 cells (mouse-derived preadipocytes); assay: Expression of indicator protein CO1 (mitochondria marker), Western blot; type: cell-based
Description: (§1) In order to evaluate the differentiation induction action to brown-like adipocytes of white adipocytes, the evaluation was carried out using 3T3-L1 cells (mouse-derived preadipocytes). The 3T3-L1 preadipocytes are usually differentiated to white adipocytes through a differentiation induction process to be matured. However, by the differentiation induction to brown-like adipocytes, an increase in the expression amount of cytochrome c oxidase protein specifically expressed in mitochondria is observed. Then, the differentiation induction to brown-like adipocytes of white adipocytes was confirmed based on the expression amount of the CO1 protein.
Culture of cells was carried out by the same method as that of Example 2 using the same samples and cells as those in Example 2. […] After the extraction, the protein concentration was measured using a BCA protein assay kit (manufactured by Thermo Fisher Scientific K.K.). […]
After the electrophoresis, the proteins are transferred to PVDF membranes (manufactured by EMD Millipore) by a semidry blotting device “TRANS-BLOT S-D SEMI-DRY TRANSFER CELL” (Product name, manufactured by Bio-Rad Laboratories Inc.), and then blotting was carried out by Immunoblock (manufactured by DS Pharma Biomedical Co., Ltd.). […] The band strength of the detected band was calculated using an image analysis software “Image J”.

mature adipocytes [4] = conditions: Japanese Patent Application No. 2011-145331; cited from earlier work
[5] = test system: 3T3-L1 cells (mouse-derived preadipocytes); assay: Expression of indicator genes (Cidea, Cox7a1, UCP1) of differentiation induction to brown-like adipocytes, real-time RT-PCR; type: cell-based; conditions: for differentiation induction action to brown-like adipocytes from white adipocytes: 3T3-L1, overall conclusion
Description: as §1, with “an expression of Cidea gene, an increase in the expression amount of Cox7a1 gene expressed in mitochondria, an” for “an”, “mitochondria, and an expression enhancement of UCP1 gene, which are hardly observed in white adipocytes, are” for “mitochondria is”, “each gene of Cidea, Cox7a1, and UCP1.” for “the CO1 protein.”
For samples, two substances of resveratrol and UHA1028 were used. Since the action of the differentiation induction to brown-like adipocytes was not observed in sinapic acid, sinapic acid was not used as a comparison target. Each sample was dissolved in dimethylsulfoxide (DMSO, manufactured by Wako Pure Chemical Industries, Ltd.) with a concentration of 4 mM and 2 mM to be used for a test.
Culture was carried out using “Dulbecco's modified Eagle medium” (DMEM, Product name, manufactured by Sigma-Aldrich Corporation) containing 10% “Foetal Bovine Serum” (FBS, manufactured by Biological industries), 1% “Antibiotic-Antimycotic”, and GIBCO (manufactured by Life Technology Corporation). Adipocytes to be used for the test were prepared in accordance with a usual method.
The test was carried out as follows. 2 mL of 3T3-L1 cells were sowed with a concentration of 5×10^4 cells/mL in a 6 well dish for cell culture (manufactured by Japan Becton, Dickinson and Company), and then cultured under the conditions of 37° C. and 5% CO2 for 24 hours. 24 hours later, the DMEM culture medium was exchanged to a DMEM culture medium which was adjusted in such a manner that the final concentration of the UHA1028 was 10 μM or the final concentration of the resveratrol was 20 μM, culture was continued in such a manner that the cells were confluent to 100%, and then culture was further carried out for 48 hours. Next, the culture medium was exchanged to a culture medium in which 10 μL of each sample (Final concentration of 20 μM and 10 μM) was added to 2 mL DMEM for differentiation, to which 1% of insulin, 0.5% of dexamethasone, and 0.1% of isobutylmethylxanthine were added, attached to “AdipoInducer Reagent” (Product name, manufactured by Takara Bio, Inc.), and then differentiation induction was carried out under the conditions of 37° C. and 5% CO2 for 48 hours. After the differentiation induction for 48 hours, the culture medium was exchanged to 2 mL of DMEM for maintaining culture to which 1% of insulin was added, and then culture was further carried out for one week for maturing adipocytes. One to which 0.5% of only DMSO which is a solvent was added was used as a control.
After the end of the culture, the total amount RNA was extracted from the cells using an RNA extraction kit (Product name: NucleoSpin (Registered Trademark) RNA II, manufactured by Takara Bio, Inc.) and refined. […]

[6] = 3T3-L1, UHA1028 10 μM, as compared with resveratrol 20 μM, FIG. 1

| Structure (SMILES) | sirtuin expression promotion action [1] | lipoprotein lipase promotion action (mature adipocytes [2]) | differential inhibition action to mature adipocytes of preadipocytes (preadipocytes) | mitochondria marker protein (CO1) expressed in mature adipocytes ([3]; 3T3-L1, Western blot band strength, as compared with DMSO and resveratrol, FIG. 2) | amount of mitochondria in the cells ([3]; 3T3-L1, results of Examples 2 and 3, as compared with resveratrol) | adiponectin production promotion action (mature adipocytes [4]) | expression amount of the Cox7a1 (mitochondria marker gene) [5, 6] | expression amount of the UCP1 gene [5, 6] | gene expression amount of the Cidea (marker gene of the brown-like adipocytes) [5, 6] | differentiation induction action to brown-like adipocytes from white adipocytes [5] |
| --- | --- | --- | --- | --- | --- | --- | --- | --- | --- | --- |
| COc1cc(C(C)c2c(O)cc(/C=C/c3ccc(O)cc3)cc2O)cc(OC)c1O (centres unmarked) [UHA1028] | sirtuin expression promotion action | lipoprotein lipase promotion action | differential inhibition action | significantly large | significantly increased | adiponectin production promotion action | significantly increased | significantly increased | significantly increased | notably induced |
| COc1cc(/C=C/C(=O)O)cc(OC)c1O [sinapic acid, reference compound] |  |  |  |  |  |  |  |  |  | not observed |
